± gives the standard deviation of the averaged measurements.
Legend:
MDV3100 = compound: CNC(=O)c1ccc(N2C(=S)N(c3ccc(C#N)c(C(F)(F)F)c3)C(=O)C2(C)C)cc1F [MDV3100]; test: surviving fraction relative to DMSO-only wells; higher = less growth inhibition; conditions: exposure time: 5 days
Procedure, shortened: (§1)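 Viability values are CellTiter-Glo luminescence readings, given as surviving fraction against the median of DMSO-only wells. The readings were taken after 10 minutes at room temperature, following five days of continuous exposure to inhibitors at 0.5, 1, 5, 10, 50, 100, 500 and 1000 nM that began 24 hours after log-phase tumour cell lines were seeded at 250–500 cells per well in 384-well plates. Every line was screened three times and kept only if replicate Pearson r >0.7 and median Z' >0.3.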

TIOGUANINE = compound: Nc1nc2[nH]cnc2c(=S)[nH]1 [TIOGUANINE]; test: as above; conditions: exposure time: 5 days
Procedure, shortened: as §1

Test System	surviving fraction (MDV3100; 0.5 nM)	surviving fraction (MDV3100; 1 nM)	surviving fraction (MDV3100; 5 nM)	surviving fraction (MDV3100; 10 nM)	surviving fraction (MDV3100; 50 nM)	surviving fraction (MDV3100; 100 nM)	surviving fraction (MDV3100; 500 nM)	surviving fraction (MDV3100; 1000 nM)	surviving fraction (TIOGUANINE; 0.5 nM)	surviving fraction (TIOGUANINE; 1 nM)	surviving fraction (TIOGUANINE; 5 nM)	surviving fraction (TIOGUANINE; 10 nM)	surviving fraction (TIOGUANINE; 50 nM)	surviving fraction (TIOGUANINE; 100 nM)	surviving fraction (TIOGUANINE; 500 nM)	surviving fraction (TIOGUANINE; 1000 nM)
HCC1395 BREAST	1.18 ± 0.027	1.14 ± 0.089	1.24 ± 0.075	1.08 ± 0.19	1.18 ± 0.15	1.1 ± 0.15	1.18 ± 0.16	1.16 ± 0.024	0.999 ± 0.06	1.12 ± 0.064	0.968 ± 0.1	1.11 ± 0.054	1.05 ± 0.039	1.16 ± 0.04	1.11 ± 0.086	1.09 ± 0.081
YAMATO SYNOVIAL	1.12 ± 0.074	0.741 ± 0.028	1.08 ± 0.076	0.241 ± 0.015	1.22 ± 0.12	0.977 ± 0.081	1.15 ± 0.053	0.352 ± 0.018	1.31 ± 0.071	1.21 ± 0.046	1.32 ± 0.052	1.35 ± 0.11	1.36 ± 0.17	1.37 ± 0.06	1.24 ± 0.092	1.06 ± 0.066
CAL72 BONE	0.965 ± 0.087	0.992 ± 0.041	1 ± 0.073	1 ± 0.021	1.08 ± 0.076	0.986 ± 0.17	1.05 ± 0.13	1.02 ± 0.15	1.08 ± 0.029	1.07 ± 0.027	1.09 ± 0.073	1.1 ± 0.056	1.14 ± 0.034	1.124 ± 0.0085	1.13 ± 0.029	1.13 ± 0.043
93VU HEADNECK	0.848 ± 0.096	0.876 ± 0.058	1.05 ± 0.099	0.994 ± 0.12	1.07 ± 0.15	1.04 ± 0.22	0.887 ± 0.03	0.771 ± 0.016	0.831 ± 0.039	0.872 ± 0.088	1.03 ± 0.082	1.08 ± 0.094	1.06 ± 0.015	1.06 ± 0.11	0.798 ± 0.042	0.768 ± 0.081
MCF7 BREAST	0.84 ± 0.029	0.822 ± 0.031	0.866 ± 0.058	0.767 ± 0.038	0.932 ± 0.03	0.992 ± 0.025	0.97 ± 0.014	0.897 ± 0.028	0.824 ± 0.015	0.804 ± 0.075	0.846 ± 0.032	0.835 ± 0.025	0.903 ± 0.045	0.875 ± 0.069	0.872 ± 0.054	0.889 ± 0.055
S68 BREAST	0.974 ± 0.2	1.04 ± 0.035	1.08 ± 0.11	1.04 ± 0.027	1.24 ± 0.076	1.34 ± 0.2	0.962 ± 0.21	0.949 ± 0.22	1.2 ± 0.1	0.975 ± 0.046	0.981 ± 0.04	0.941 ± 0.11	1.1 ± 0.18	1.04 ± 0.097	1.05 ± 0.14	1.04 ± 0.27
HSSYII SYNOVIAL	0.881 ± 0.042	0.848 ± 0.052	0.903 ± 0.022	0.545 ± 0.034	0.908 ± 0.028	0.9 ± 0.066	0.949 ± 0.032	0.721 ± 0.01	0.927 ± 0.055	0.911 ± 0.028	0.954 ± 0.05	0.92 ± 0.027	0.941 ± 0.055	0.972 ± 0.049	0.885 ± 0.02	0.842 ± 0.059
JIMT1 BREAST	0.964 ± 0.025	0.9673 ± 0.007	1.01 ± 0.02	0.983 ± 0.02	1.04 ± 0.048	1.07 ± 0.076	1.05 ± 0.055	0.982 ± 0.025	0.966 ± 0.018	0.975 ± 0.023	0.984 ± 0.034	0.9947 ± 0.0086	1.05 ± 0.015	1.03 ± 0.025	0.9495 ± 0.0077	0.912 ± 0.0067
LM7 BONE	0.992 ± 0.053	1.01 ± 0.073	1.07 ± 0.096	1.06 ± 0.03	1.15 ± 0.09	1.14 ± 0.087	1.07 ± 0.096	0.963 ± 0.05	0.966 ± 0.054	0.984 ± 0.068	1.02 ± 0.064	1.05 ± 0.068	1.08 ± 0.058	1.07 ± 0.039	0.965 ± 0.1	0.939 ± 0.13
RDES SOFT TISSUE	1.25 ± 0.1	1.07 ± 0.035	1.11 ± 0.064	1.15 ± 0.11	1.2 ± 0.086	1.12 ± 0.21	1.38 ± 0.074	1.25 ± 0.19	1.19 ± 0.17	1.42 ± 0.042	1.33 ± 0.06	1.35 ± 0.13	1.25 ± 0.17	1.19 ± 0.12	1.07 ± 0.012	1.28 ± 0.15
MDAMB134 BREAST	0.813 ± 0.09	0.82 ± 0.1	0.894 ± 0.2	0.918 ± 0.0099	1.06 ± 0.15	0.794 ± 0.033	1.17 ± 0.018	0.992 ± 0.25	0.993 ± 0.11	1.04 ± 0.12	0.909 ± 0.017	0.928 ± 0.11	1.04 ± 0.0028	1.1 ± 0.17	0.88 ± 0.049	0.858 ± 0.073
HOS BONE	1.007 ± 0.0093	0.9937 ± 0.0011	1.01 ± 0.017	0.982 ± 0.0062	1.05 ± 0.022	1.05 ± 0.021	1.05 ± 0.017	1.015 ± 0.0067	1 ± 0.011	0.9977 ± 0.0091	1.004 ± 0.0085	1.02 ± 0.032	1.05 ± 0.033	1.038 ± 0.0061	0.75 ± 0.037	0.612 ± 0.016
MDAMB436 BREAST	0.965 ± 0.086	0.884 ± 0.076	0.9783 ± 0.0076	0.95 ± 0.024	0.999 ± 0.1	0.9082 ± 0.0022	0.925 ± 0.083	0.86 ± 0.036	0.892 ± 0.057	0.837 ± 0.05	0.864 ± 0.059	0.932 ± 0.028	1.03 ± 0.096	0.906 ± 0.13	0.921 ± 0.094	0.928 ± 0.065
LNCAP PROSTATE	1.05 ± 0.15	0.962 ± 0.035	0.912 ± 0.089	0.957 ± 0.13	0.979 ± 0.012	0.925 ± 0.053	0.663 ± 0.033	0.497 ± 0.079	0.933 ± 0.078	0.912 ± 0.028	0.955 ± 0.17	0.964 ± 0.09	1.07 ± 0.11	0.976 ± 0.085	0.971 ± 0.06	0.977 ± 0.07
143B BONE	1.07 ± 0.061	1.1 ± 0.1	1.09 ± 0.086	1.09 ± 0.088	1.13 ± 0.12	1.13 ± 0.11	1.11 ± 0.11	1.1 ± 0.093	0.986 ± 0.015	1.01 ± 0.018	0.993 ± 0.025	0.999 ± 0.0071	0.9995 ± 0.0092	1.01 ± 0.028	0.904 ± 0.0014	0.707 ± 0.041
HT1080 SOFT TISSUE	1.052 ± 0.0076	1.07 ± 0.03	1.063 ± 0.008	1.05 ± 0.016	1.02 ± 0.018	1.04 ± 0.045	0.999 ± 0.015	0.994 ± 0.027	1 ± 0.012	0.989 ± 0.026	0.982 ± 0.016	1.04 ± 0.016	1.02 ± 0.041	0.974 ± 0.022	0.81 ± 0.013	0.594 ± 0.036
SUM149.B1*.S BREAST	0.994 ± 0.02	0.925 ± 0.017	0.979 ± 0.063	0.578 ± 0.014	1.03 ± 0.04	0.9605 ± 0.0031	1.02 ± 0.011	0.694 ± 0.049	1.02 ± 0.072	1.019 ± 0.0064	1.03 ± 0.016	1.03 ± 0.056	1.02 ± 0.033	1 ± 0.015	0.993 ± 0.022	0.922 ± 0.033
CAL120 BREAST	0.906 ± 0.066	0.905 ± 0.025	0.931 ± 0.051	0.925 ± 0.077	0.941 ± 0.058	0.935 ± 0.042	0.953 ± 0.059	0.955 ± 0.025	0.912 ± 0.028	0.943 ± 0.014	0.9412 ± 0.0032	0.919 ± 0.028	0.95 ± 0.021	0.939 ± 0.02	0.88 ± 0.035	0.826 ± 0.036
HOSMNG BONE	1.02 ± 0.035	1.01 ± 0.023	1.02 ± 0.041	1.05 ± 0.033	1.11 ± 0.054	1.18 ± 0.088	1.15 ± 0.062	1.09 ± 0.032	0.991 ± 0.03	1.01 ± 0.029	0.988 ± 0.068	0.989 ± 0.016	1.05 ± 0.047	1.02 ± 0.089	1.04 ± 0.037	0.983 ± 0.028
MDAMB453 BREAST	0.953 ± 0.045	0.942 ± 0.071	0.962 ± 0.055	0.98 ± 0.07	0.956 ± 0.054	0.967 ± 0.037	0.985 ± 0.032	0.924 ± 0.0079	1.01 ± 0.073	0.999 ± 0.053	1.04 ± 0.027	1.02 ± 0.04	1.08 ± 0.03	1.03 ± 0.029	0.98 ± 0.13	0.864 ± 0.09
